In US20180161386A1, “PHARMACEUTICAL COMPOSITION FOR TREATMENT OF DEPRESSION AND PREPARATION METHOD THEREOF” (THISHERB HEALTH PTY LTD, priority 2015, published 2018):
Counter-ions that a name gives are not always drawn.

What was measured:
mice [1] = assay: mouse-tail suspension test; assay type: in vivo
Description: (§1) 1.1 Drug testing and reagents: The capsules pharmaceutical compositions for the treatment of depression in form of obtained in Example 2 compared with fluoxetine hydrochloride. 1.2 Animals: 20 male and 20 female mice provided by the Experimental Animal Center; average body mass of 18-22 g. 1.3 Instruments: Mouse-tail suspension device (a wooden board of about 1 meter in length, fixed onto a desktop with a horizontal distance of about 15 cm), swimming model device (a glass tank with a height of 30 cm, a diameter of 14 cm, a water depth of 10 cm, and temperature of 25° C.), and homemade open box. 1.4 Grouping: The mice were fed for one week, during which time the mice feed and drink freely. The mice were randomly divided into four groups of control group, depression capsule low-dose group (hereinafter referred to as the low-dose group), depression capsule high-dose group (hereinafter referred to as the high-dose group), the positive groups, 10 mice per group. […]
The mouse was suspended by its tail so that the tail was adhered (1 cm from the tail end of the mouse) to the horizontal plank of wooden board by tape with its head about 5 cm above the desktop. […] The test was performed in 1 h after last drug administration and the time of the mouse being immobile within last 4 min for 6 min period was recorded.

mice [2] = assay: mouse forced swimming test; assay type: in vivo
Description: 1.1 Drug testing and reagents: The capsules pharmaceutical compositions for the treatment of depression in form of obtained in Example 2 compared with fluoxetine hydrochloride. 1.2 Animals: 20 male and 20 female mice provided by the Experimental Animal Center; average body mass of 18-22 g. 1.3 Instruments: Mouse-tail suspension device (a wooden board of about 1 meter in length, fixed onto a desktop with a horizontal distance of about 15 cm), swimming model device (a glass tank with a height of 30 cm, a diameter of 14 cm, a water depth of 10 cm, and temperature of 25° C.), and homemade open box. 1.4 Grouping: The mice were fed for one week, during which time the mice feed and drink freely. The mice were randomly divided into four groups of control group, depression capsule low-dose group (hereinafter referred to as the low-dose group), depression capsule high-dose group (hereinafter referred to as the high-dose group), the positive groups, 10 mice per group. 1.5 Drug administration: The control group was given saline daily at 0.2 ml/10 g; the positive control group was given fluoxetine hydrochloride 2.4 mg/kg; the low-dose group was given depression capsules 1.05 g/kg; and the high-dose group was given depression capsules 4.20 g/kg. The route of administration was directly into the stomach.
1.6.2 Mouse forced swimming test: Refer to method by Prosolt et al. […]

mice [3] = assay: opening test (independent activity, open box); assay type: in vivo, mouse
Description: as §1
A wooden box was provided with 36 cm×36 cm×27 cm, the bottom of which is divided into 25 squares. The test was performed in 1 h after last drug administration, and the number of the mouse crossing the grids and vertical climbing within last 3 min for 5 min period was recorded.

[4] = positive group 2.4 mg/kg, P<0.01

CNCCC(Oc1ccc(C(F)(F)F)cc1)c1ccccc1 (stereo not drawn) [fluoxetine hydrochloride]
Immobile time in the mouse-tail suspension test (mice [1]; mice, positive control group 0.0024 g/kg (2.4 mg/kg), directly into the stomach, 1 h after last administration, last 4 min of 6 min, x ± s, n = 10): 73 s
effect on immobile time in mouse-tail suspension test compared with the control group (mice [1]; [4]): highly significant difference
Immobile time in mouse forced swimming test (mice [2]; mice, positive control group 0.0024 g/kg (2.4 mg/kg), directly into the stomach, 1 h after last administration, last 4 min of 6 min, water 25° C., x ± s, n = 10): 83.5 s
effect on immobile time in mouse forced swimming test compared with the control group (mice [2]; [4]): highly significant difference
the number of squares crossed by mouse (mice [3]; mice, positive control group 0.0024 g/kg (2.4 mg/kg), directly into the stomach, 1 h after last administration, last 3 min of 5 min, ±s, n = 10): 43.9 ± 13.3
effect on independent activity in the opening test compared with the control group (mice [3]; positive group 2.4 mg/kg, P>0.05): no significant difference
